Experimental data as given in patent US20040229931A1, “1-Aryl-3-(indol-5-yl) prop-2-en-1-ones, compositions containing them and use” (Aventis Pharma S. A., priority 2003, published 2004).

Assays:
Ames test (mutagenicity) = assay: Ames test (mutagenicity)
From the text: (§1) Another problem posed consisted in obtaining products having all the advantages described above without the disadvantages frequently encountered during the study of products of the chalcone family. These disadvantages are (i) the problems of cardiac toxicity, which can be evaluated by measuring the inhibition of Herg receptors, (ii) finally, and to a lesser degree, the problems of mutagenicity, which can be evaluated in particular in the Ames test.

Tubulin = target: T1, Tubulin (Sus scrofa, UniProt P02550+P02554); assay: Inhibition of polymerization of tubulin (turbidimetry); type: biochemical; conditions: pig brain tubulin 10 μM, turbidity at 350 nm, 37° C.
T1 construct: Tubulin is purified from pig brains according to published methods; from tissue; host or cells: pig brain
T1 sequence (P02550 whole entry): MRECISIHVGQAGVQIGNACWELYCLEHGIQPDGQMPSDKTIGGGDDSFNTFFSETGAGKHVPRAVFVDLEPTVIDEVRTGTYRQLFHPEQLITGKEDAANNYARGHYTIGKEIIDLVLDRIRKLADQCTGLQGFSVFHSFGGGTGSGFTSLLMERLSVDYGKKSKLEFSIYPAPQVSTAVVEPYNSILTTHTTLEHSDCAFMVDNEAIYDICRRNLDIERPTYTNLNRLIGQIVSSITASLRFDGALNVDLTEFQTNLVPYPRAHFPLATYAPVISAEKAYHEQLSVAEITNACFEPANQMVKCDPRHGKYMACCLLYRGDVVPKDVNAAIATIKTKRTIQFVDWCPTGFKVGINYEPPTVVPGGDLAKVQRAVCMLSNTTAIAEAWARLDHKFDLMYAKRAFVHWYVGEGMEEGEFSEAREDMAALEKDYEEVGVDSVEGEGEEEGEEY
T1 sequence (P02554 whole entry): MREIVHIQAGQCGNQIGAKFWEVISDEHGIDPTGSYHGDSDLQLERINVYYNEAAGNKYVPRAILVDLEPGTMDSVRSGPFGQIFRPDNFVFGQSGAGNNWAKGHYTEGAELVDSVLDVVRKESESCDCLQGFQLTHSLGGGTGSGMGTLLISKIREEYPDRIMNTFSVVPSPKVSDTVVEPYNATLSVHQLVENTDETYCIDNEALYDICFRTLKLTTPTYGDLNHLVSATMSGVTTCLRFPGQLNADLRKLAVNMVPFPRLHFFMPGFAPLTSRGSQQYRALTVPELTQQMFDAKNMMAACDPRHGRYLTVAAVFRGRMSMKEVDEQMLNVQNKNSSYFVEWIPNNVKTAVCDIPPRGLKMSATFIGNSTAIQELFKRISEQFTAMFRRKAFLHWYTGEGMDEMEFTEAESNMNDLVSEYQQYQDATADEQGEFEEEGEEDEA
Method: Tubulin is purified from pig brains according to published methods (Shelanski et al., Proc. Natl. Acad. Sci. USA, 70, 765-768. Weingarten et al., 1975, Proc. Natl. Acad. Sci. USA, 72, 1858-1862). Briefly, the brains are ground and centrifuged in an extraction buffer. The tubulin contained in the supernatant of the extract undergoes two successive cycles of polymerization at 37° C. and depolymerization at 4° C., before being separated from the MAPs (Microtubule Associated Proteins) by chromatography on a phosphocellulose P11 column (Whatman). The tubulin thus isolated is more than 95% pure. It is stored in a buffer called RB/2 30% glycerol whose composition is 50 mM MES-NaOH [2-(N-morpholino)ethanesulfonic acid], pH 6.8; 0.25 mM MgCl2; 0.5 mM EGTA; 30% glycerol (v/v), 0.2 mM GTP (guanosine-5′-triphosphate).
The polymerization of tubulin to microtubules is monitored by turbidimetry as follows: the tubulin is adjusted to a concentration of 10 μM (1 mg/ml) in RB/2 30% glycerol buffer to which 1 mM GTP and 6 mM MgCl2 are added. The polymerization is triggered by an increase in temperature from 6° C. to 37° C. in a cuvette having an optical path length of 1 cm, placed in a UVIKON 931 spectrophotometer (Kontron) equipped with a thermostated cuvette holder. The increase in the turbidity of the solution is monitored at 350 nm.
The compounds of this invention are dissolved at 10 mM in DMSO and added at variable concentrations (0.5 to 10 μM) to the tubulin solution before polymerization. The IC50 is defined as the concentration of compound which inhibits the rate of polymerization by 50%.

[1] = test system: C51 murine adenocarcinoma (colon tumor); assay: Evaluation of tumor necrosis in vivo; conditions: 35 mg/kg, intravenous injection, 24 hours after treatment, female BALB/c mice; listed as EXAMPLE 2
From the text: Mice are bred either by IFFA-CREDO (Domaine des Oncins, 69210 L'Arbresle, France) from a breed obtained by Jackson Laboratories, Bar Harbor, Me., USA, or alternatively by Charles River France (76410 St Aubin les Elbeuf, France) from a breed obtained by Charles River, USA. The mice initially weigh more than 18 g at the start of the trial. They have free access to food (UAR reference 113, Villemoisson, 91160 Epinay sur Orge, France) and to water.
The tumors used are currently transplanted in our laboratories. All these tumors are at the Frederick Cancer Research Facility (Frederick, Md., USA) at the repository of frozen tumors of the National Cancer Institute (NCI), or at the American Type Culture Collection (ATCC, Rockville, Md., USA).
The techniques for tumor transplantation, chemotherapy and data analysis have been presented in detail (Corbett et al., 1982a; Corbett et al., 1982b).
To summarize, the animals necessary for one experiment are assembled and bilaterally implanted on day 0 (zero).
The growth of solid tumors develops freely up to the desired size. […]
The samples are then treated, cut into sections, stained with haematoxylin, eosin and saffron yellow, and are then examined […]. The tumor necrosis (necrosis±degeneration) is evaluated microscopically using a scale of extent from 0 to 5: […]
The necrosis due to the experiment was evaluated on an untreated control. […]

HDMEC cells = assay: Inhibition of proliferation of endothelial cells HDMEC ([14C]thymidine incorporation); type: cell-based; conditions: Homo sapiens, Endothelial cell, 48 hours
Method: The evaluation of the detachment of the endothelial cells in vitro is determined in the following manner. HDMEC cells (Human Dermal Microvascular Endothelial Cells, Promocell, c-122102) are cultured in an ECGM-MV medium which contains 5% foetal calf serum, growth factors (EGF 10 ng/ml, hydrocortisone 1 μg/ml, 0.4% growth supplement with heparin) and antibiotics (amphoteracin 50 ng/ml, gentamycin 50 μg/ml). For the detachment test, the HDMECs are inoculated at 5 000 cells in clear-bottomed 96-well plates (Costar) precoated with fibronectin (10 μg/ml) or vitronectin (1 μg/ml) or gelatin. Twenty-four hours later, the culture medium is replaced with ECGM-MV 0.1% BSA medium containing the products indicated. […] The fluorescence of the cells which remain attached to the substratum of the well is counted using a fluorimeter, Spectrafluor Plus (Tecan excitation 485 nm, and emission 535 nm). The data are the mean of six different samples and are expressed as the percentage of the control (untreated cells).
The proliferation of HeLa or HDMEC cells is evaluated by measuring the incorporation of [^14C]thymidine in the following manner. […] [^14C]Thymidine (0.1 μCi/well) and the products to be evaluated are then added. […] 48 hours after incubation at 37° C., the radioactivity incorporated into the cells is measured by counting the plate in a TR1-LUX counter (Wallac). […]

HeLa cells = assay: Inhibition of proliferation of HeLa tumor cells ([14C]thymidine incorporation); type: cell-based; conditions: Homo sapiens, 48 hours, read-out: Inhibition of cell proliferation IC50, HeLa
Method: The proliferation of HeLa or HDMEC cells is evaluated by measuring the incorporation of [^14C]thymidine in the following manner. The HeLa cells (epithelial tumor cells of human origin) are cultured in a DMEM medium (Gibco) which contains 10% of foetal calf serum and antibiotics (1% penicillin, 1% streptomycin). To carry out the proliferation test, the cells are inoculated into 96-well Cytostar microplates (Amersham), at the rate of 5000 cells per well. [^14C]Thymidine (0.1 μCi/well) and the products to be evaluated are then added. Variable concentrations of products of up to 10 μM are used; the DMSO (solvent used to solubilize the products) should not exceed 0.5% in the medium. 48 hours after incubation at 37° C., the radioactivity incorporated into the cells is measured by counting the plate in a TR1-LUX counter (Wallac). The IC50 is defined as the concentration of compound which reduces by 50% the radioactivity compared with an untreated control.

Herg receptors = Herg receptors (Homo sapiens, UniProt Q12809); assay: Inhibition of Herg receptors (cardiac toxicity)
Chain of Herg receptors (Q12809 whole entry): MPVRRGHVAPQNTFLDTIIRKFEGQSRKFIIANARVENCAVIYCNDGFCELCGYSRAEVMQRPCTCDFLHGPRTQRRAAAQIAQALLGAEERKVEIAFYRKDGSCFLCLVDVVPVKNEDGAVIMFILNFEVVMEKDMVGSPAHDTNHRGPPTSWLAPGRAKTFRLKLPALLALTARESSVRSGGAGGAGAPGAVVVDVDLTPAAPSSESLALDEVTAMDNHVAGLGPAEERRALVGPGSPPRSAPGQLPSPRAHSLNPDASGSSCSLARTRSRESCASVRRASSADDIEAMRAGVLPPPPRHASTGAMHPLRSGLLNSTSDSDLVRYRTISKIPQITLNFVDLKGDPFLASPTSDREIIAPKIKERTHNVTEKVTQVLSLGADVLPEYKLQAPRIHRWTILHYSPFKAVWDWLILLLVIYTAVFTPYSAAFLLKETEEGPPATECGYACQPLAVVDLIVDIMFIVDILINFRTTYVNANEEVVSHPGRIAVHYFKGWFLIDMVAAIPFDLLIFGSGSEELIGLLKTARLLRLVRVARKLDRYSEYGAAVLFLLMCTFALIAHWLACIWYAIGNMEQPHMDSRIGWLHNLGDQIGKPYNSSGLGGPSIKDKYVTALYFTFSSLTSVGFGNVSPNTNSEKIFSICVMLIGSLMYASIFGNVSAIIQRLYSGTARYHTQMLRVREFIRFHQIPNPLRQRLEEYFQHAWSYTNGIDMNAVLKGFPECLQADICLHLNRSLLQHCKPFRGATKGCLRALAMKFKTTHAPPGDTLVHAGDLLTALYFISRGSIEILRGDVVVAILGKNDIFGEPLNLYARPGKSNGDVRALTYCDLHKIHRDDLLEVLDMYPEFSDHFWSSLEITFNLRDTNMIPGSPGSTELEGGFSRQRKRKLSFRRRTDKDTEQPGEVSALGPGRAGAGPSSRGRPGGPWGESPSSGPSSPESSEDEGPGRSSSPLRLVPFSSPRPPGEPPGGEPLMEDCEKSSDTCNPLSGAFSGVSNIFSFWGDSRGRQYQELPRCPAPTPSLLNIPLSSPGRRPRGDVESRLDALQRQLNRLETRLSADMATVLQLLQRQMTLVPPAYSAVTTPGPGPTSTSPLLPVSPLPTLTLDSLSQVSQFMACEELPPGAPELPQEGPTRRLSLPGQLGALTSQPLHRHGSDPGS
From the text: as §1

Row | SMILES | melting point | Ames (Ames test (mutagenicity)) | IC50 (Tubulin) | C51 colon Tumor necrosis In vivo (grade, scale 0 to 5) [1] | IC50 (HDMEC cells) | IC50 (HeLa cells) | IC50 (Herg receptors)
1 | COc1ccc(OC)c(C(=O)/C(C)=C/c2ccc3c(ccn3CCO)c2)c1 [Example 3, E-2-Methyl-3-[1-(2-hydroxyethyl)-1-H-indol-5-yl]-1-(2,5-dimethoxyphenyl)propenone] | 112 °C | negative | 830 nM | – | – | – | –
2 | COc1cc(C(=O)/C(C)=C/c2ccc3c(ccn3CCO)c2)cc2c1OCO2 [Example 2, E-2-Methyl-3-[1-(2-hydroxyethyl)indol-5-yl]-1-(3-methoxy-4,5-methylenedioxyphenyl)propenone] | 83 °C | negative | 600 nM | 5 (considerable, >75%) | 0.22 to 0.61 nM | 1.23 to 1.62 nM | > 30 µM
3 | COc1cc(C(=O)/C(C)=C/c2ccc3c(ccn3CCO)c2)cc(OC)c1OC [Example 1, E-2-Methyl-3-[1-(2-hydroxyethyl)indol-5-yl]-1-(3,4,5-trimethoxyphenyl)propenone] | 119 °C | negative | 800 nM | – | 0.97 to 3.29 nM | 3.48 to 3.75 nM | –
